Reference: patent US8828985B2, “Carbamate and urea inhibitors of 11-beta-hydroxysteroid dehydrogenase 1” (Vitae Pharmaceuticals, Inc., priority 2008, dated 2014)
Like-named read-outs stand apart in the source and are kept apart here.

What was measured:
human 11β-HSD1 [1] = target: T1, human 11β-HSD1 (Homo sapiens, UniProt P28845)
human 11β-HSD1 [2] = target: T1, human 11β-HSD1; assay: biochemical; settings: for inhibition at 0.1 µM / inhibition at 0.111 µM: 1.5 h; for IC50: Biological Test Example 2 IC50 Range, microsomes from CHO cells overexpressing human 11β-HSD1, SPA
[3] = read-out: Biological Test Example 2 Average % inhibition at 100 nm, at 100 nm
[4] = read-out: Biological Test Example 2 Average % inhibition at 111 nm, at 111 nm

T1 sequence (P28845 whole entry): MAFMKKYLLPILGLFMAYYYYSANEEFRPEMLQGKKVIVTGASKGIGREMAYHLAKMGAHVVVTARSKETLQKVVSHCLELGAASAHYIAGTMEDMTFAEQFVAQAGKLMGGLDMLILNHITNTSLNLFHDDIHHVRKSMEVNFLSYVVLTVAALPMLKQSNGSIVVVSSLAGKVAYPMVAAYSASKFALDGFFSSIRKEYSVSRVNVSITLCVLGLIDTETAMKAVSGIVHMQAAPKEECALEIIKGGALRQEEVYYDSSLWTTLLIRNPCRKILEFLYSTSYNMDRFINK

SMILES | inhibition at 0.1 µM (human 11β-HSD1 [2]; [3]) | IC50 (human 11β-HSD1 [2]) | also measured
NC(=O)C12CC3CC(C1)C(OC(=O)N1CC[C@@H](Nc4ncccn4)C1)C(C3)C2 (single isomer, unassigned) [Example 62 Isomer 2] | – | – | Biological Test Example 2 Average % inhibition at 100 nm (human 11β-HSD1 [1]; at 100 nm): 78.7%; IC50 (human 11β-HSD1 [1]; read-out: Biological Test Example 2 IC50 Range, microsomes from CHO cells overexpressing human 11β-HSD1, SPA): < 100 nM
Cc1cc(N[C@@H]2CCN(C(=O)O[C@H]3C4CC5CC3C[C@](C(N)=O)(C5)C4)C2)nc(C)n1 [Example 33, (R)-(trans-1-carbamoyl-4-adamantyl) 3-(2,6-dimethylpyrimidin-4-ylamino)pyrrolidine-1-carboxylate] | 78.6% | < 100 nM | –
Cc1nccc2nc(N[C@@H]3CCN(C(=O)O[C@H]4C5CC6CC4C[C@](O)(C6)C5)C3)ccc12 [Example 88, (R)-(trans-1-hydroxy-4-adamantyl) 3-(5-methyl-1,6-naphthyridin-2-ylamino)pyrrolidine-1-carboxylate] | 69.4% | < 100 nM | –
CN(c1ccc(C#N)cn1)C1CCN(C(=O)O[C@H]2C3CC4CC2C[C@](C(N)=O)(C4)C3)C1 (stereo partly drawn) [Example 74, (trans-1-carbamoyl-4-adamantyl) 3-((5-cyanopyridin-2-yl)(methyl)amino)pyrrolidine-1-carboxylate] | 97.8% | < 100 nM | inhibition at 0.111 µM (human 11β-HSD1 [2]; [4]): 96.5%
NC(=O)C12CC3CC(C1)C(OC(=O)N1CC[C@@H](Nc4ncccc4F)C1)C(C3)C2 (stereo partly drawn) [Example 63, (R)-(trans-1-carbamoyl-4-adamantyl) 3-(3-fluoropyridin-2-ylamino)pyrrolidine-1-carboxylate] | 98.4% | < 100 nM | –
N#Cc1cccnc1N[C@H]1CCN(C(=O)O[C@H]2C3CC4CC2C[C@](C(N)=O)(C4)C3)C1 [Example 66, (S)-(trans-1-carbamoyl-4-adamantyl) 3-(3-cyanopyridin-2-ylamino)pyrrolidine-1-carboxylate] | 95.5% | < 100 nM | –
N#Cc1ccc(N[C@@H]2CCN(C(=O)O[C@H]3C4CC5CC3C[C@](C(N)=O)(C5)C4)C2)nn1 [Example 116, (R)-(trans-1-carbamoyl-4-adamantyl) 3-(6-cyanopyridazin-3-ylamino)pyrrolidine-1-carboxylate] | 71.4% | < 100 nM | –
Cc1ccc(C#N)c(N[C@@H]2CCN(C(=O)O[C@H]3C4CC5CC3C[C@](O)(C5)C4)C2)n1 [Example 83, (R)-(trans-1-hydroxy-4-adamantyl) 3-(3-cyano-6-methylpyridin-2-ylamino)pyrrolidine-1-carboxylate] | 98.5% | < 100 nM | –
CC(C)(C)OC(=O)N(CCO)[C@@H]1CCN(C(=O)O[C@H]2C3CC4CC2C[C@](C(N)=O)(C4)C3)C1 [Example 28, (R)-(1-carbamoyl-4-adamantyl) 3-(tert-butoxycarbonyl(2-hydroxyethyl)amino)pyrrolidine-1-carboxylate] | – | < 100 nM | –
O=C(O[C@H]1C2CC3CC1C[C@](O)(C3)C2)N1CC[C@@H](Nc2nc3ccc(Cl)cc3s2)C1 [Example 97, (R)-(trans-1-hydroxy-4-adamantyl) 3-(6-chlorobenzo[d]thiazol-2-ylamino)pyrrolidine-1-carboxylate] | 91.1% | < 100 nM | –
O=C(O[C@H]1C2CC3CC1C[C@](O)(C3)C2)N1CC[C@@H](Nc2cnc3cc(Cl)ccc3n2)C1 [Example 96, (R)-(trans-1-hydroxy-4-adamantyl) 3-(6-chloroquinoxalin-2-ylamino)pyrrolidine-1-carboxylate] | 101% | < 100 nM | –
COC(=O)c1cnc(N[C@@H]2CCN(C(=O)O[C@H]3C4CC5CC3C[C@](O)(C5)C4)C2)nc1 [Example 107, Methyl 2-((R)-1-((trans-1-hydroxy-4-adamantyloxy)carbonyl)pyrrolidin-3-ylamino)pyrimidine-5-carboxylate] | – | < 100 nM | –
NC(=O)c1cnc(N[C@@H]2CCN(C(=O)O[C@H]3C4CC5CC3C[C@](O)(C5)C4)C2)nc1 [Example 109, (R)-(trans-1-hydroxy-4-adamantyl) 3-(5-carbamoylpyrimidin-2-ylamino)pyrrolidine-1-carboxylate] | 50.1% | < 100 nM | –
N#Cc1cccnc1N[C@@H]1CCN(C(=O)O[C@H]2C3CC4CC2C[C@](O)(C4)C3)C1 [Example 80, (R)-(trans-1-hydroxy-4-adamantyl) 3-(3-cyanopyridin-2-ylamino)pyrrolidine-1-carboxylate] | – | < 100 nM | –
CC(C)OC(=O)N[C@@H]1CCN(C(=O)NC2C3CC4CC(C3)CC2C4)C1 (stereo partly drawn) [Example 49, (R)-isopropyl 1-((2-adamantyl)carbamoyl)pyrrolidin-3-ylcarbamate] | – | < 100 nM | inhibition at 0.111 µM (human 11β-HSD1 [2]; [4]): 74.6%
NC(=O)C1CC2CCCC(C1)C2OC(=O)N1CC[C@@H](Nc2ccc(C(F)(F)F)cn2)C1 (stereo partly drawn) [Example 71, (3R)-3-carbamoylbicyclo[3.3.1]nonan-9-yl 3-(5-(trifluoromethyl)pyridin-2-ylamino)pyrrolidine-1-carboxylate] | 84.2% | < 100 nM | inhibition at 0.111 µM (human 11β-HSD1 [2]; [4]): 82.6%

SMILES | inhibition at 0.1 µM (human 11β-HSD1 [2]; [3]) | IC50 (human 11β-HSD1 [2]) | also measured
Cc1nc(N[C@@H]2CCN(C(=O)O[C@H]3C4CC5CC3C[C@](O)(C5)C4)C2)ccc1C#N [Example 84, (R)-(trans-1-hydroxy-4-adamantyl) 3-(5-cyano-6-methylpyridin-2-ylamino)pyrrolidine-1-carboxylate] | 71.6% | < 100 nM | –
CN(c1ncccc1C(F)(F)F)C1CCN(C(=O)O[C@H]2C3CC4CC2C[C@](C(N)=O)(C4)C3)C1 (stereo partly drawn) [Example 44, (trans-1-carbamoyl-4-adamantyl) 3-(methyl(3-(trifluoromethyl)pyridin-2-yl)amino)pyrrolidine-1-carboxylate] | 97.2% | < 100 nM | –
CNC(=O)c1cc(Cl)cnc1N[C@@H]1CCN(C(=O)O[C@H]2C3CC4CC2C[C@](O)(C4)C3)C1 [Example 98, (R)-(trans-1-hydroxy-4-adamantyl) 3-(5-chloro-3-(methylcarbamoyl)pyridin-2-ylamino)pyrrolidine-1-carboxylate] | 91.1% | < 100 nM | –
CC(C)(C)NC(=O)c1cc(Cl)cnc1N[C@@H]1CCN(C(=O)O[C@H]2C3CC4CC2C[C@](O)(C4)C3)C1 [Example 102, (R)-(trans-1-hydroxy-4-adamantyl) 3-(3-(tert-butylcarbamoyl)-5-chloropyridin-2-ylamino)pyrrolidine-1-carboxylate] | 78.7% | < 100 nM | –
N#Cc1ccc2nc(N[C@@H]3CCN(C(=O)O[C@H]4C5CC6CC4C[C@](O)(C6)C5)C3)ccc2c1 [Example 90, (R)-(trans-1-hydroxy-4-adamantyl) 3-(6-cyanoquinolin-2-ylamino)pyrrolidine-1-carboxylate] | 95.6% | < 100 nM | –
N#Cc1cc(Cl)cnc1N[C@@H]1CCN(C(=O)O[C@H]2C3CC4CC2C[C@](O)(C4)C3)C1 [Example 86, (R)-(trans-1-hydroxy-4-adamantyl) 3-(5-chloro-3-cyanopyridin-2-ylamino)pyrrolidine-1-carboxylate] | 101% | < 100 nM | –
N#Cc1ccc(N[C@@H]2CCN(C(=O)O[C@H]3C4CC5CC3C[C@](O)(C5)C4)C2)cc1 [Example 78, (R)-(trans-1-hydroxy-4-adamantyl) 3-(4-cyanophenylamino)pyrrolidine-1-carboxylate] | 80.1% | < 100 nM | –
N#Cc1ccc2nc(N[C@@H]3CCN(C(=O)O[C@H]4C5CC6CC4C[C@](O)(C6)C5)C3)cnc2c1 [Example 91, (R)-(trans-1-hydroxy-4-adamantyl) 3-(6-cyanoquinoxalin-2-ylamino)pyrrolidine-1-carboxylate] | 63.6% | < 100 nM | –
O=C(NC1CC1)c1cc(Cl)cnc1N[C@@H]1CCN(C(=O)O[C@H]2C3CC4CC2C[C@](O)(C4)C3)C1 [Example 101, (R)-(trans-1-hydroxy-4-adamantyl) 3-(5-chloro-3-(cyclopropylcarbamoyl)pyridin-2-ylamino)pyrrolidine-1-carboxylate] | 82.6% | < 100 nM | –
N#Cc1ccc(N[C@@H]2CCN(C(=O)NC3C4CC5CC(C4)CC3C5)C2)nc1 (stereo partly drawn) [Example 61, (R)-3-(5-cyanopyridin-2-ylamino)-N-(2-adamantyl)pyrrolidine-1-carboxamide] | – | < 100 nM | inhibition at 0.1 µM (human 11β-HSD1 [2]; read-out: Biological Test Example 2 Average % inhibition at 100 nm): 97.6%
CC1(Nc2ncccc2C#N)CCN(C(=O)O[C@H]2C3CC4CC2C[C@](C(N)=O)(C4)C3)C1 (stereo partly drawn) [Example 67, (trans-1-carbamoyl-4-adamantyl) 3-(3-cyanopyridin-2-ylamino)-3-methylpyrrolidine-1-carboxylate] | 97% | < 100 nM | –
N#Cc1cccnc1N[C@@H]1CCN(C(=O)O[C@H]2C3CC4CC2C[C@](C#N)(C4)C3)C1 [Example 73, (3R) (trans-1-cyano-4-adamantyl) 3-(3-cyanopyridin-2-ylamino)pyrrolidine-1-carboxylate] | 94.6% | < 100 nM | –
N#Cc1cccnc1NC1CCN(C(=O)O[C@H]2C3CC4CC2C[C@](C(N)=O)(C4)C3)CC1 [Example 68, (1-carbamoyl-4-adamantyl) 4-(3-cyanopyridin-2-ylamino)piperidine-1-carboxylate] | 90.7% | < 100 nM | –
CCOC(=O)C1(Nc2ccccc2)CCN(C(=O)NC2C3CC4CC(C3)CC2C4)CC1 (stereo not shown) [Example 59, Ethyl 1-(2-adamantylcarbamoyl)-4-(phenylamino)piperidine-4-carboxylate] | – | 100 to 1000 nM | inhibition at 0.111 µM (human 11β-HSD1 [2]; read-out: Biological Test Example 2 Average % inhibition at 111 nm): 47.5%
CC(C)(C)OC(=O)N1CCCC12CCN(C(=O)NC1C3CC4CC(C3)CC1C4)C2 (stereo not shown) [Example 58, tert-butyl 7-(2-adamantylcarbamoyl)-1,7-diazaspiro[4.4]nonane-1-carboxylate] | – | < 100 nM | inhibition at 0.111 µM (human 11β-HSD1 [2]; [4]): 94.3%
